Reference: US12054449B2, “Phenylcarbamate crystalline form and method for manufacturing the same” (BIO-PHARM SOLUTIONS CO., LTD., priority 2021, dated 2024)
Blank lines part the entries; values can stand above or below the compound they belong to.

Legend:
[1] = Change of crystalline form on standing or drying (XRPD); assay type: physicochemical
Experimental: XRPD patterns were detected by CuKα irradiation (30 kV, 10 mA) using a Bruker AXS D2 diffractometer. The analysis was performed using θ-θ geometry and a LynxEye detector at 5 to 42° 2θ with a step size of 0.024° 2θ at 0.1 sec/step.
Samples were run at ambient conditions and prepared as flat specimens using powder received without grinding. About 1 to 2 mg of the sample was lightly pressed on a silicon wafer to obtain a flat surface.

[2] = Competitive slurry experiment for Pattern 1 and Pattern 3; assay type: physicochemical; conditions: 4 days
Experimental: To investigate the relative thermodynamic stability of various crystalline form patterns at room temperature and 50° C., competitive slurry experiments were carried out.
A mixture of Pattern 1 and Pattern 3 (ED01748-028-003-00, 4×20 mg) was dispensed into vials. They were treated with 250 μL of a saturated solution of Pattern 1 (ED01748-006-001-00) in DIPE or heptane (50 mg of ED01748-006-001-00 was treated with DIPE or heptane and heated at 50° C., a portion was removed as needed, and the resulting product was filtered through a 0.45 μm syringe filter, thereby forming a slurry). The produced slurry was stirred at room temperature or 50° C. After analysis, the solid was returned to the vial, and an additional saturated solution was added as needed to maintain the slurry. After 4 days, the purity of the material was confirmed by UPLC.

change on standing o/n ([1]; solid from Exp. 9, chloroform/Toluene): No change
change on standing o/n ([1]; solid from Exp. 13, DCM/Toluene): No change
SMILES: C[C@H](OC(N)=O)[C@@H](O)c1ccccc1Cl [Pattern 9, 1-(2-chlorophenyl)-(S)-1-hydroxypropyl-(S)-2-carbamate]

Behaviour on standing [1]: variable behaviour on standing
SMILES: C[C@H](OC(N)=O)[C@@H](O)c1ccccc1Cl [Pattern 7, 1-(2-chlorophenyl)-(S)-1-hydroxypropyl-(S)-2-carbamate]

The next lines start with the compound.

SMILES: C[C@H](OC(N)=O)[C@@H](O)c1ccccc1Cl [Pattern 8, 1-(2-chlorophenyl)-(S)-1-hydroxypropyl-(S)-2-carbamate]
Change on standing ([1]; Pattern 8 from chloroform and heptane): observed to change on standing
change on standing o/n ([1]; solid from Exp. 10, chloroform/Heptane): No change
change on standing o/n ([1]; solid from Exp. 14, DCM/Heptane): Small

SMILES: C[C@H](OC(N)=O)[C@@H](O)c1ccccc1Cl [ED01748-028-003-00, 1-(2-chlorophenyl)-(S)-1-hydroxypropyl-(S)-2-carbamate]
UPLC purity of slurry material after 4 days ([2]; DIPE samples, RT and 50° C.): 98%
UPLC purity of slurry material after 4 days ([2]; heptane sample): 98.5%

SMILES: C[C@H](OC(N)=O)[C@@H](O)c1ccccc1Cl [Pattern 4, 1-(2-chlorophenyl)-(S)-1-hydroxypropyl-(S)-2-carbamate]
Change in form by XRPD on drying ([1]; brief drying whilst standing in the open vial): change in form by XRPD from Pattern 4 to a mixture of Pattern 1 and Pattern 3

SMILES: C[C@H](OC(N)=O)[C@@H](O)c1ccccc1Cl [Pattern 6, 1-(2-chlorophenyl)-(S)-1-hydroxypropyl-(S)-2-carbamate]
Form conversion by XRPD ([1]; Pattern 6 material from anisole, stood overnight): converted to a mixture of Pattern 6 and Pattern 1
Form conversion by XRPD ([1]; Pattern 6 material from toluene): converted to a mixture of Pattern 6 and Pattern 3
